According to US20070048371A1, “Pharmaceutical formulations/composition of guanfacine suitable for single dose form administration daily” (priority 2005, published 2007):

Legend:
[1] = Example 3: Phase I single-dose crossover bioequivalence/dose proportionality study, 1 mg, 2 mg, 4 mg tablets, healthy adult volunteers; type: in vivo, human; conditions: for Vd/F: Vz/F; for half-life: t1/2
Method: Objectives: The study was designed to assess the bioequivalence of guanfacine 2 mg and 4 mg tablets from table 2 and to investigate the dose proportionality of 1 mg, 2 mg, and 4 mg doses.
Methods: This was a Phase I, randomized, open-label, single-dose, five period, four-treatment crossover design with a separate lead-in period.
Forty-nine (49) healthy adult volunteers completed the study. During period 1, all subjects received a single 1 mg dose administered after and overnight fast. Prior to period 2, subjects were randomly assigned to one of four sequence groups, with 13 subjects per sequence. During treatment periods 2-5, subjects received their assigned treatment of 2 mg or 4 mg. All subjects were to receive two single doses of 2 mg tablets and two single doses of 4 mg tablets during the course of the study. Doses during periods 2-5 were also administered after an overnight fast.

[2] = Example 4: Phase I single-dose crossover bioequivalence study, 2.5 mg versus 2 mg tablets, healthy adult volunteers; type: in vivo, human; conditions: for AUC(0-t): AUC0-last; for Vd/F: Vz/F
Method: Objectives: The objective of this study was to investigate the bioequivalence of guanfacine 2.5 mg tablets versus guanfacine 2 mg tablets.
Methods: This Phase I study utilized a randomized, open-label, single-dose, three-treatment crossover design. Forty-eight (48) healthy adult volunteers completed the study. All subjects were randomly assigned to one of 6 treatment sequences and received a 2 mg and 2.5 mg tablet of guanfacine. During treatment periods 1-3, subjects received their assigned treatment (a single oral dose 2 mg or 2.5 mg after an overnight fast).

Which AUC(0-inf) ([1]; human, in vivo, 4 mg, AUC∞) does the source give for `N=C(N)NC(=O)Cc1c(Cl)cccc1Cl` [guanfacine] here?
Its AUC(0-inf) is ~125 ng·h/mL.

And the Cmax ([1]; human, in vivo, 4 mg, mean Cmax)?
The Cmax was ~3.58 ng/mL.

What about the Tmax ([1]; human, in vivo, 4 mg, median Tmax) of the same compound?
Its Tmax is ~5 h.

And the CL/F ([1]; human, in vivo, po, 1 mg)?
The CL/F was 560 ± 194 mL/mm.

What about the AUC(0-t) ([1]; human, in vivo, po, 1 mg, AUC0-t) of the same compound?
Its AUC(0-t) is 29.3 ± 8.84 ng·h/mL.

What about the AUC(0-inf) ([1]; human, in vivo, po, 1 mg, AUC0-∞) of the same compound?
Its AUC(0-inf) is 32.4 ± 8.78 ng·h/mL.

What about the Cmax ([1]; human, in vivo, po, 1 mg, Cmax) of the same compound?
Its Cmax is 0.98 ± 0.26 ng/mL.

What about the Vd/F ([1]; human, in vivo, po, 1 mg) of the same compound?
Its Vd/F is 823 ± 249 L.

What about the half-life ([1]; human, in vivo, po, 1 mg) of the same compound?
Its half-life is 1050 ± 230 min.

And the Tmax ([1]; human, in vivo, po, 1 mg, tmax)?
The Tmax was 6 h.

What about the “AUC0-∞” value ([1]; human, in vivo, po, 2 mg) of the same compound?
Its value is 57.8 ± 19.1 ng·h/mL.

And the AUC(0-t) ([1]; human, in vivo, po, 2 mg)?
Its AUC(0-t) is 54.0 ± 17.6 ng·h/mL.

And the Cmax ([1]; human, in vivo, po, 2 mg)?
Its Cmax is 1.54 ± 0.53 ng/mL.

What about the Vz/F ([1]; human, in vivo, po, 2 mg) of the same compound?
The Vz/F was 889 ± 241 L.

What about the t1/2 ([1]; human, in vivo, po, 2 mg) of the same compound?
The t1/2 was 16.7 ± 4.12 h.

What about the AUC(0-t) ([1]; human, in vivo, po, 2 mg, AUC0-t) of the same compound?
Its AUC(0-t) is 55 ± 18 ng·h/mL.

What about the AUC(0-inf) ([1]; human, in vivo, po, 2 mg, AUC0-∞) of the same compound?
Its AUC(0-inf) is 58.1 ± 18.8 ng·h/mL.

And the Cmax ([1]; human, in vivo, po, 2 mg, Cmax)?
Its Cmax is 1.59 ± 0.49 ng/mL.

And the Vd/F ([1]; human, in vivo, po, 2 mg)?
Its Vd/F is 894 ± 328 L.

And the half-life ([1]; human, in vivo, po, 2 mg)?
Its half-life is 984 ± 208 min.

What about the Tmax ([1]; human, in vivo, po, 2 mg, tmax) of the same compound?
The Tmax was 6 h.

And the “AUC0-∞” value ([1]; human, in vivo, po, 4 mg)?
The value was 123 ± 44.6 ng·h/mL.

And the AUC(0-t) ([1]; human, in vivo, po, 4 mg)?
Its AUC(0-t) is 119 ± 43.4 ng·h/mL.

And the Cmax ([1]; human, in vivo, po, 4 mg)?
The Cmax was 3.59 ± 1.40 ng/mL.

What about the Vz/F ([1]; human, in vivo, po, 4 mg) of the same compound?
Its Vz/F is 866 ± 393 L.

And the t1/2 ([1]; human, in vivo, po, 4 mg)?
The t1/2 was 16.2 ± 4.15 h.

What about the AUC(0-t) ([1]; human, in vivo, po, 4 mg, AUC0-t) of the same compound?
Its AUC(0-t) is 120 ± 41.5 ng·h/mL.

What about the AUC(0-inf) ([1]; human, in vivo, po, 4 mg, AUC0-∞) of the same compound?
The AUC(0-inf) was 125 ± 46 ng·h/mL.

And the Cmax ([1]; human, in vivo, po, 4 mg, Cmax)?
Its Cmax is 3.58 ± 1.39 ng/mL.

What about the Vd/F ([1]; human, in vivo, po, 4 mg) of the same compound?
The Vd/F was 854 ± 294 L.

And the half-life ([1]; human, in vivo, po, 4 mg)?
The half-life was 1030 ± 331 min.

What about the Tmax ([1]; human, in vivo, po, 4 mg, tmax) of the same compound?
Its Tmax is 5.01 h.

What about the half-life ([1]; human, in vivo) of the same compound?
Its half-life is 1030 ± 330 min.

What about the “deaths or serious adverse events” value ([1]; single 1 mg, 2 mg, 4 mg doses, healthy adults) of the same compound?
Its value is “no deaths or serious adverse events”.

What about the AUC(0-t) ([2]; human, in vivo, 2.5 mg) of the same compound?
Its AUC(0-t) is ~81.3 ng·h/mL.

What about the AUC(0-inf) ([2]; human, in vivo, 2.5 mg, AUC∞) of the same compound?
Its AUC(0-inf) is ~85 ng·h/mL.

What about the Cmax ([2]; human, in vivo, 2.5 mg, mean Cmax) of the same compound?
Its Cmax is ~2.49 ng/mL.

And the Tmax ([2]; human, in vivo, 2.5 mg, median Tmax)?
Its Tmax is ~6 h.

And the CL/F ([2]; human, in vivo, po, 2 mg)?
Its CL/F is 612 ± 303 mL/min.

What about the AUC(0-inf) ([2]; human, in vivo, po, 2 mg, AUC0-inf) of the same compound?
Its AUC(0-inf) is 64.2 ± 22.6 ng·h/mL.

And the AUC(0-t) ([2]; human, in vivo, po, 2 mg)?
The AUC(0-t) was 59.8 ± 20.9 ng·h/mL.

And the Cmax ([2]; human, in vivo, po, 2 mg, Cmax)?
The Cmax was 1.71 ± 0.56 ng/mL.

What about the half-life ([2]; human, in vivo, po, 2 mg, T½) of the same compound?
The half-life was 1060 ± 348 min.

What about the Vd/F ([2]; human, in vivo, po, 2 mg) of the same compound?
The Vd/F was 884 ± 382 L.

What about the Tmax ([2]; human, in vivo, po, 2 mg, tmax) of the same compound?
Its Tmax is 6 h.

And the T½ ([2]; human, in vivo, po, 2.5 mg)?
The T½ was 16.7 ± 7.4 h.

What about the Vz/F ([2]; human, in vivo, po, 2.5 mg) of the same compound?
The Vz/F was 809 ± 406 L.

What about the AUC(0-inf) ([2]; human, in vivo, po, 2.5 mg, AUC0-inf) of the same compound?
The AUC(0-inf) was 84.5 ± 34.2 ng·h/mL.

What about the AUC(0-t) ([2]; human, in vivo, po, 2.5 mg) of the same compound?
The AUC(0-t) was 77.8 ± 30.4 ng·h/mL.

What about the Cmax ([2]; human, in vivo, po, 2.5 mg, Cmax) of the same compound?
Its Cmax is 2.26 ± 0.67 ng/mL.

What about the Tmax ([2]; human, in vivo, po, 2.5 mg, Tmax) of the same compound?
Its Tmax is 5 h.

And the half-life ([2]; human, in vivo, po, 2.5 mg, T½)?
Its half-life is 1140 ± 396 min.

And the Vd/F ([2]; human, in vivo, po, 2.5 mg)?
Its Vd/F is 915 ± 390 L.

What about the half-life ([2]; human, in vivo, t1/2) of the same compound?
The half-life was 1000 ± 444 min.

And the deaths ([2]; single 2 mg and 2.5 mg doses, healthy adults)?
The deaths was “no deaths”.
